The results in this text go back to patent US10421722B2, “Sulfur-containing compounds targeting vesicular acetylcholine transporter” (Washington University, priority 2016, dated 2019).

One test concerns the target human VAChT (Homo sapiens (Human), UniProt Q16572). In words: VAChT binding, competition against [3H]Vesamicol. Conditions: oxalate form, expressed human VAChT, mean ± SEM. How it is done: (§1) In vitro binding studies were performed to measure the affinities to the VAChT and σ1 and σ2 receptors. VAChT binding was assayed using membrane homogenate from PC12 cells which overexpress human VAChT.^8 The σ1 and σ2 binding affinities were assayed in […], respectively.
The test compounds were assayed in increments of 10-fold from 0.1 to 10,000 nM concentration. The surfaces of containers were pre-coated with Sigmacote (Sigma-Aldrich, Mo.). Samples containing 200 μg postnuclear supernatant in 200 μL of 110 mM potassium tartrate, 20 mM HEPES (pH 7.4 with KOH), 1 mM dithiothreitol, and 0.02% sodium azide were incubated at 22° C. for 24 h. A volume of 90 μL was filtered in duplicate through GF/F glass fiber filters coated with polyethylenimine and washed. Filter-bound radioactivity was determined by liquid scintillation spectrometry for 10 min per sample. Averaged data were fitted by regression with a rectangular hyperbola to estimate Ki value. All the compounds were independently assayed at least two times.

The target of the next test is σ1 receptor (Cavia porcellus (Guinea pig), UniProt Q60492). Kind of test: σ1 receptor binding, [3H](+)-Pentazocine. Conditions: for Ki: oxalate form, homogenates of guinea pig brain, mean ± SEM; for Selectivity ratio VAChT/σ1: ratio of Ki values. How it is done: as §1
Sequence of σ1 receptor (Q60492 whole entry): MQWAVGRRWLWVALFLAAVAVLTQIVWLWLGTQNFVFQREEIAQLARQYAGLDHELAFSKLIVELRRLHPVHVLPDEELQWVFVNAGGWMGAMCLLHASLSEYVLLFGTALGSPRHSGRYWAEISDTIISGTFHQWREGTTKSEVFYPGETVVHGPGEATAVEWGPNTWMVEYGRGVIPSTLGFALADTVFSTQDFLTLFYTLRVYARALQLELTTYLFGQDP
(§2) Briefly, to measure the σ1 receptor binding affinity, we use guinea pig brain membrane homogenates (˜300 μg protein) tissues as the receptor resource and ˜5 nM [^3H](+)-Pentazocine (34.9 Ci/mmol, Perkin Elmer, Boston, Mass.) as the radioligand. The mixture was incubated in 96-well plates for 90 min at room temperature. Nonspecific binding was determined from samples containing 10 μM of nonradioactive Haloperidol. After 90 min, the mixture was transferred into a 96-well fiberglass filter plate (Millipore, Billerica, Mass.) presoaked with 100 μL of 50 mM Tris-HCl buffer at pH 8.0 for 60 min, followed by addition of 150 μL of ice-cold wash buffer (10 mM Tris-HCl, 150 mM NaCl, pH 7.4). The harvested samples were filtered rapidly and washed with 3×200 μL portions of ice-cold wash buffer, and the filterers were counted by a Wallac 1450 MicroBeta liquid scintillation counter (Perkin-Elmer, Boston, Mass.). […] The mixture was incubated for 120 min at room temperature. Nonspecific binding was determined from samples containing 10 μM of nonradioactive Haloperidol. All other procedures were similar to those described for the σ1 receptor binding assay above. Data from the competitive binding experiments were modeled using nonlinear regression analysis to determine the concentration that inhibits 50% of the specific binding of the radioligand. Competitive binding curves were best fit to a one-site fit and gave pseudo-Hill coefficients of 0.6-1.0. Ki values were calculated using the method of Cheng and Prusoff,^35 then presented as the mean±SEM.

In the next test the target is σ2 receptor (Rattus norvegicus (Rat), UniProt Q5U3Y7). In words: σ2 receptor binding, [3H]DTG. The conditions noted are these: for Ki: oxalate form, homogenates of rat liver; for Selectivity ratio VAChT/σ2: ratio of Ki values. The protocol: In vitro binding studies were performed to measure the affinities to the VAChT and σ1 and σ2 receptors. […]
Sequence of σ2 receptor (Q5U3Y7 whole entry): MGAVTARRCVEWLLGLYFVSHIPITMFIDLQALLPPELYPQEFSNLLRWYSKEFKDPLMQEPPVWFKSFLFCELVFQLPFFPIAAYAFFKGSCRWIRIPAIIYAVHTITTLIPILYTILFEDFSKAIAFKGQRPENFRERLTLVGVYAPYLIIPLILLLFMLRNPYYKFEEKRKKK
as §2

The mark [1] stands for this setting: Table 1, read-out: Ki (nM) for VAChT.
Where [2] appears, read: Table 2, read-out: Ki (nM) VAChT.

Where two headings read alike, the source gives them in different places.

Sequence of human VAChT (Q16572 whole entry): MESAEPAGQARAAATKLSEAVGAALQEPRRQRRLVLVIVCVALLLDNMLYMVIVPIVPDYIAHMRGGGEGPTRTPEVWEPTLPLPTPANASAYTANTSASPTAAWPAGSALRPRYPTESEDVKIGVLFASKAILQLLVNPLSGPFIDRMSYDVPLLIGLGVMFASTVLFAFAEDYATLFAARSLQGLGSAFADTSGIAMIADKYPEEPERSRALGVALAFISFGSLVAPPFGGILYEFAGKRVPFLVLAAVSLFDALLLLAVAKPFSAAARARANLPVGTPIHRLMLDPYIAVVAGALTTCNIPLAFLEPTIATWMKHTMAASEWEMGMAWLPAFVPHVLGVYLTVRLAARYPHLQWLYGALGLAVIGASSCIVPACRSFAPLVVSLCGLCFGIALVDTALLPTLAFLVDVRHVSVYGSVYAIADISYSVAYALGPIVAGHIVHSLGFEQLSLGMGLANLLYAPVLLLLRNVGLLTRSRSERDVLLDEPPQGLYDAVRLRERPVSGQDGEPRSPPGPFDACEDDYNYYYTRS

Consider `C[S+]([O-])c1ccc(C(=O)C2CCN(C3Cc4ccccc4CC3O)CC2)cc1` (centres unmarked) [Compound 4, (1-(3-Hydroxy-1,2,3,4-tetrahydronaphthalen-2-yl)piperidin-4-yl)(4-(methylsulfinyl)phenyl)methano-ne], for which the Ki at human VAChT (setting [1]) was determined as 6.5 nM.

As for `CS(=O)(=O)c1ccc(C(=O)C2CCN(C3Cc4ccccc4CC3O)CC2)cc1` (single isomer, unassigned; (-)) [(−)-2], the Ki on human VAChT (setting [2]) is 4.1 ± 0.9 nM; at σ1 receptor, 34.7 ± 4.9 nM; on σ2 receptor, more than 1000 nM. Also, the “Selectivity ratio VAChT/σ1” value at σ1 receptor is 8.5. On σ2 receptor, the “Selectivity ratio VAChT/σ2” value is recorded as more than 243.

Regarding `O=C(c1ccc(SCCCF)cc1)C1CCN(C2Cc3ccccc3CC2O)CC1` (racemic) [Compound 9b, (4-((3-Fluoropropyl)thio)phenyl)(1-(3-hydroxy-1,2,3,4-tetrahydronaphthalen-2-yl)piperidin-4-yl)methanone], on human VAChT (setting [1]), the Ki came out at 2.3 nM. At σ1 receptor, the Ki came to 40.8 ± 4.1 nM and the “Selectivity ratio VAChT/σ1” value is given as 17.7. For the same compound, at σ2 receptor, the Ki was more than 1000 nM and the “Selectivity ratio VAChT/σ2” value was more than 434.

With `CS(=O)(=O)c1ccc(C(=O)C2CCN([C@@H]3Cc4ccccc4C[C@H]3O)CC2)cc1` (single isomer, unassigned) [(+)-2], the Ki at human VAChT (setting [2]) is 193 ± 17.8 nM; on σ1 receptor, 18.5 ± 3.4 nM; at σ2 receptor, more than 1000 nM. Moreover, the “Selectivity ratio VAChT/σ1” value at σ1 receptor was 0.1. Besides, the “Selectivity ratio VAChT/σ2” value at σ2 receptor is more than 5.

Regarding `O=C(c1ccc(SCCF)cc1)C1CCN(C2Cc3ccccc3CC2O)CC1` (single isomer, unassigned; (-)) [(−)-9a], the Ki at human VAChT (setting [2]) was 2.2 nM. At σ1 receptor, the Ki was 30.8 ± 4.1 nM and the “Selectivity ratio VAChT/σ1” value is given as 13.4. Moreover, on σ2 receptor, the Ki is more than 1000 nM and the “Selectivity ratio VAChT/σ2” value is more than 454.

As to `O=C(c1ccc(SCCCF)cc1)C1CCN([C@@H]2Cc3ccccc3C[C@H]2O)CC1` (single isomer, unassigned) [(+)-9b], on human VAChT (setting [2]), the Ki was found to be 19.9 ± 9.2 nM. Besides, on σ1 receptor, affinity was put at a Ki of 38.6 ± 7.1 nM and the “Selectivity ratio VAChT/σ1” value is recorded as 1.9. On σ2 receptor, the Ki is more than 1000 nM and the “Selectivity ratio VAChT/σ2” value was more than 50.

For `O=C(c1ccc(S(=O)(=O)NCCF)cc1)C1CCN(C2Cc3ccccc3CC2O)CC1` (centres unmarked) [Compound 6b, N-(2-fluoroethyl)-4-(1-(3-hydroxy-1,2,3,4-tetrahydronaphthalen-2-yl)piperidine-4-carbonyl)benzenesulfonamide], the Ki on human VAChT (setting [1]) stood at 13 nM.

For the compound `O=C(c1ccc(SCCF)cc1)C1CCN([C@@H]2Cc3ccccc3C[C@H]2O)CC1` (single isomer, unassigned) [(+)-9a], the inhibition constant Ki at human VAChT (setting [2]) was 11.8 ± 2.7 nM. In addition, on σ1 receptor, affinity was put at a Ki of 14.4 ± 2 nM and the “Selectivity ratio VAChT/σ1” value turned out to be 1.2. In addition, on σ2 receptor, the Ki was more than 1000 nM and the “Selectivity ratio VAChT/σ2” value was more than 84.

Regarding `CSc1ccc(C(=O)C2CCN(C3Cc4ccccc4CC3O)CC2)cc1` (single isomer, unassigned; (-)) [(−)-3], the Ki at human VAChT (setting [2]) is 1.4 nM. Besides, at σ1 receptor, the Ki came to 19 ± 5.6 nM and the “Selectivity ratio VAChT/σ1” value came out at 13.6. On σ2 receptor, the Ki is more than 1000 nM and the “Selectivity ratio VAChT/σ2” value is listed as more than 714.

On to `CNS(=O)(=O)c1ccc(C(=O)C2CCN(C3Cc4ccccc4CC3O)CC2)cc1` (centres unmarked) [Compound 6a, 4-(1-(3-Hydroxy-1,2,3,4-tetrahydronaphthalen-2-yl)piperidine-4-carbonyl)-N-methylbenzenesulfon-amide], for which the Ki at human VAChT (setting [1]) came to 6.3 nM.

Consider `CSc1ccc(C(=O)C2CCN(C3Cc4ccccc4CC3O)CC2)cc1` (racemic) [Compound 3, (1-(3-Hydroxy-1,2,3,4-tetrahydronaphthalen-2-yl)piperidin-4-yl)(4-(methylthio)phenyl)methanone], for which the Ki is 2.4 nM on human VAChT (setting [1]), 17.2 ± 4 nM on σ1 receptor and more than 1000 nM on σ2 receptor. In addition, the “Selectivity ratio VAChT/σ1” value at σ1 receptor came to 7.2. Moreover, the “Selectivity ratio VAChT/σ2” value on σ2 receptor is given as more than 416.

`O=C(c1ccc(SCCF)cc1)C1CCN([C@@H]2Cc3ccccc3C[C@H]2O)CC1` (single isomer, unassigned) [(−)-[^18F]9a]: the Ki at human VAChT (Table 2, listed as (−)-[18F]9a, read-out: Ki (nM) VAChT) was determined as 2.2 nM.

On to `O=C(c1ccc(S(=O)(=O)CCCF)cc1)C1CCN(C2Cc3ccccc3CC2O)CC1` (centres unmarked) [Compound 7, (4-((3-Fluoropropyl)sulfonyl)phenyl)(1-(3-hydroxy-1,2,3,4-tetrahydronaphthalen-2-yl)piperidin-4-yl)methanone], for which the Ki at human VAChT (setting [1]) was 12.8 ± 0.7 nM.

`O=C(c1ccc(SCCCF)cc1)C1CCN(C2Cc3ccccc3CC2O)CC1` (single isomer, unassigned; (-)) [(−)-9b]: the Ki on human VAChT (setting [2]) is 1.4 nM. Besides, at σ1 receptor, the inhibition constant Ki was determined as 4.1 ± 0.7 nM and the “Selectivity ratio VAChT/σ1” value is 2.9. Moreover, on σ2 receptor, the Ki is more than 1000 nM and the “Selectivity ratio VAChT/σ2” value is reported as more than 714.

Regarding `CSc1ccc(C(=O)C2CCN([C@@H]3Cc4ccccc4C[C@H]3O)CC2)cc1` (single isomer, unassigned) [(+)-3], the Ki on human VAChT (setting [2]) was determined as 13.8 ± 1.1 nM. Moreover, at σ1 receptor, the Ki came out at 23.3 ± 2.9 nM and the “Selectivity ratio VAChT/σ1” value is recorded as 1.7. In addition, on σ2 receptor, the Ki is more than 1000 nM and the “Selectivity ratio VAChT/σ2” value is on record as more than 72.

Regarding `CS(=O)(=O)c1ccc(C(=O)C2CCN(C3Cc4ccccc4CC3O)CC2)cc1` (racemic) [Compound 2, (1-(3-Hydroxy-1,2,3,4-tetrahydronaphthalen-2-yl)piperidin-4-yl)(4 (methylsulfonyl)phenyl)methanone], the Ki at human VAChT (setting [1]) worked out at 5.4 nM. Moreover, on σ1 receptor, the Ki was 16.5 ± 2.1 nM and the “Selectivity ratio VAChT/σ1” value was 3.1. On σ2 receptor, the Ki was more than 1000 nM and the “Selectivity ratio VAChT/σ2” value was more than 185.

With `O=C(c1ccc(SCCF)cc1)C1CCN(C2Cc3ccccc3CC2O)CC1` (racemic) [Compound 9a, (4-((2-Fluoroethyl)thio)phenyl)(1-(3-hydroxy-1,2,3,4-tetrahydronaphthalen-2-yl)piperidin-4-yl)methanone], at human VAChT (setting [1]), the Ki came out at 2.4 nM. On σ1 receptor, affinity was put at a Ki of 16.7 ± 2.1 nM and the “Selectivity ratio VAChT/σ1” value was 7.0. Besides, at σ2 receptor, the Ki is more than 1000 nM and the “Selectivity ratio VAChT/σ2” value was more than 416.
